# “And” between values parts separate entries of the source, which are not always exact repeats. Identical values can stand only once. “Also recorded” adds a separate entry of the source. Like-named read-outs stand apart in the source and are kept apart here.
# Experiments:
# [1] = tested on: M. tuberculosis H37Ra PZA^R #6; assay: microbe, parasite or virus in culture; type: cell-based; details: Mycobacterium tuberculosis, 504 h, pH 6.8, read-out: MIC of PZA
# M. tuberculosis H37Ra [2] = type: cell-based, Mycobacterium tuberculosis
# [3] = tested on: M. tuberculosis H37Ra PZA^R #106; assay: microbe, parasite or virus in culture; type: cell-based; details: Mycobacterium tuberculosis, 504 h, pH 6.8, read-out: MIC of PZA
# [4] = tested on: M. tuberculosis H37Ra (PZA^S); type: cell-based; details: test tubes, PZA-S1 medium, pH 6.8
# [5] = tested on: M. tuberculosis H37Ra PZA^R #98; assay: microbe, parasite or virus in culture; type: cell-based; details: Mycobacterium tuberculosis, 504 h, pH 6.8, read-out: MIC of PZA
# M. tuberculosis H37Ra [6] = assay: microbe, parasite or virus in culture; type: cell-based, Mycobacterium tuberculosis; details: for MIC: Mycobacterium tuberculosis, H37RA
# M. tuberculosis H37Ra [7] = assay: microbe, parasite or virus in culture; type: cell-based, Mycobacterium tuberculosis; details: for MIC: Mycobacterium tuberculosis, H37RA; remark: listed apart in the source
# H37Ra = assay: microbe, parasite or virus in culture; type: cell-based, Mycobacterium tuberculosis
# [8] = tested on: M. tuberculosis H37Ra PZA^R #186; assay: microbe, parasite or virus in culture; type: cell-based; details: Mycobacterium tuberculosis, 504 h, pH 6.8, read-out: MIC of PZA
# [9] = tested on: M. tuberculosis H37Ra PZA^R #78; assay: microbe, parasite or virus in culture; type: cell-based; details: Mycobacterium tuberculosis, 504 h, pH 6.8, read-out: MIC of PZA
smiles,measurement,setting,value
"NC(=O)c1cnccn1 [PZA, Pyrazinamide]",MIC,[1],> 800 µg/mL
same,lawn formation of M. tuberculosis,M. tuberculosis H37Ra [2]; pH 6.6,no inhibition
same,"growth inhibition, paper disk",M. tuberculosis H37Ra [2]; pH 6.8,small inhibition zone; also recorded: strong growth inhibition
same,lawn formation of M. tuberculosis,M. tuberculosis H37Ra [2]; pH 6.8,inhibited lawn formation
same,MIC,[3],> 800 µg/mL
same,concentration of PZA at which growth was inhibited,[4],200 µg/mL
same,MIC,[5],> 800 µg/mL
same,MIC for PZA lower in acidic conditions (pH 6.5 and pH 6.0) than in neutral pH 7.0 conditions,M. tuberculosis H37Ra [6],8 fold
same,MIC,"M. tuberculosis H37Ra [6]; pH 5.5, read-out: MIC for PZA",< 12.5 µg/mL
same,MIC,"M. tuberculosis H37Ra [6]; pH 6, read-out: MIC for PZA",100 µg/mL
same,MIC,"M. tuberculosis H37Ra [6]; pH 7, read-out: MIC for PZA",25 µg/mL
same,MIC,"M. tuberculosis H37Ra [6]; pH 8, read-out: MIC for PZA",200 µg/mL
same,MIC,M. tuberculosis H37Ra [6]; read-out: MIC for PZA,200 µg/mL
same,growth,M. tuberculosis H37Ra [6]; pH 5,−
same,growth,M. tuberculosis H37Ra [6]; pH 5.5,− and +
same,growth,M. tuberculosis H37Ra [6]; pH 6,+ and −
same,growth,M. tuberculosis H37Ra [6]; pH 6.5,+ and −
same,growth,M. tuberculosis H37Ra [6]; pH 7,+ and −
same,growth,M. tuberculosis H37Ra [6]; pH 7.5,− and +
same,growth,M. tuberculosis H37Ra [6]; pH 8,− and +
same,growth,M. tuberculosis H37Ra [6]; pH 8.5,− and +
same,MIC,"M. tuberculosis H37Ra [7]; 336 h, pH 6.8",200 µg/mL
same,MIC,"M. tuberculosis H37Ra [7]; pH 6.8, read-out: MICs of PZA",100 to 200 µg/mL
same,MIC,M. tuberculosis H37Ra [7]; read-out: MIC of PZA,50 µg/mL
same,increase in MIC between 1/100 and 1/10 inoculum size dilutions,M. tuberculosis H37Ra [7]; pH 6.8,2-8 fold
same,Percentage of CFU to Z 0,H37Ra,1.20% and 0.14% and 0.02% and 0.08%
same,MIC,"H37Ra; Mycobacterium tuberculosis, H37RA, read-out: MIC of PZA",50 µg/mL
same,MIC,[8],> 800 µg/mL
same,MIC,[9],> 800 µg/mL
